In patent publication US20230092679A1, “MCL-1 INHIBITOR ANTIBODY-DRUG CONJUGATES AND METHODS OF USE” (NOVARTIS AG, priority 2019, published 2023):
Where two headings read alike, the source gives them in different places.

Assays:
Assay type in all cases: cell-based
[1] = tested on: representative cancer cell lines; assay: CellTiter-Glo proliferation assay (Example 6), summary over the cell lines; details: 120 h, 5 days, read-out: IC50 values (range over cell lines)
Procedure: Mcl-1 ADCs were tested on nine endogenous cancer cell lines and one isogenic cell line engineered to overexpress a target of interest. Six targets were assessed: HER2, BCMA, CD38, CD48, CD79b, and CD33. […]
The ability of Mcl-1 ADCs to inhibit cell proliferation and survival was assessed using a Promega CellTiter-Glo® proliferation assay. […] Cell viability and cell density were determined using a cell counter (Vi-Cell XR Cell Viability Analyzer, Beckman Coulter). […] Plates were incubated at 5% CO2, 37° C. for 5 days in a tissue culture incubator, after which cell viability was assessed through the addition of 25 μl of CellTiter Glo® (Promega, Cat. No. G7573), a reagent which lyses cells and measures total adenosine triphosphate (ATP) content. Plates were incubated at room temperature for 10 minutes to stabilize luminescent signals prior to reading using a luminescence reader (EnVision Multilabel Plate Reader, PerkinElmer). […]

21435hx = assay: In vitro ADC activity, AML cell lines, CellTiter-Glo (Example 20); details: 5 days
5979hx = assay: as above; details: 5 days
hl60 = assay: as above; details: hl60, 5 days
kasumi1 = assay: as above; details: kasumi1, 5 days
kg1 = assay: as above; details: kg1, 5 days
ko52 = assay: as above; details: ko52, 5 days
monomac1 = assay: as above; details: monomac1, 5 days
monomac6 = assay: as above; details: monomac6, 5 days
mv411 = assay: as above; details: mv411, 5 days
ociaml2 = assay: as above; details: ociaml2, 5 days
ociaml3 = assay: as above; details: ociaml3, 5 days
ociaml5 = assay: as above; details: ociaml5, 5 days
ocim1 = assay: as above; details: ocim1, 5 days
p31fuj = assay: as above; details: 5 days
sigm5 = assay: as above; details: sigm5, 5 days
tf1 = assay: as above; details: tf1, 5 days

Molecule `COc1ccccc1-c1nccc(COc2ccccc2C[C@@H](Oc2ncnc3sc(-c4ccc(F)cc4)c(-c4ccc(OCCN5CCN(C)CC5)c(Cl)c4C)c23)C(=O)O)n1` [P1, (2R)-2-[5-[3-chloro-2-methyl-4-[2-(4-methylpiperazin-1-yl)ethoxy]phenyl]-6-(4-fluorophenyl)thieno[2,3-d]pyrimidin-4-yl]oxy-3-[2-[[2-(2-methoxyphenyl)pyrimidin-4-yl]methoxy]phenyl]propanoic acid] has an IC50 ([1]; HER2-positive cancer cell lines) of 10 to 60 nM, an IC50 ([1]; representative cancer cell lines except HER2-positive) of 0.038 to 5.6 nM and a GI50 (21435hx; 120 h) of 12 nM. For the same molecule, the Amax (21435hx; in % (unit assumed)) was −91, the GI50 (5979hx; 120 h) was 1 nM and the Amax (5979hx) was −83. For the same molecule, the GI50 (hl60; Homo sapiens, HL-60, 120 h) was 87 nM, the Amax (hl60; in % (unit assumed)) was −71 and the GI50 (kasumi1; Homo sapiens, Kasumi 1, 120 h) was 37 nM. For the same molecule, the Amax (kasumi1; in % (unit assumed)) was −87, the GI50 (kg1; Homo sapiens, KG-1, 120 h) was 861 nM and the Amax (kg1; in % (unit assumed)) was −69. It also gave a GI50 (ko52; 120 h) of 500 nM, an Amax (ko52; in % (unit assumed)) of −75 and a GI50 (monomac1; Mono-Mac-1, 120 h) of 1 nM. It also gave an Amax (monomac1; in % (unit assumed)) of −66, a GI50 (monomac6; Homo sapiens, MONO-MAC-6, 120 h) of 1 nM and an Amax (monomac6; in % (unit assumed)) of −43. It also gave a GI50 (mv411; Homo sapiens, MV4-11, 120 h) of 1 nM, an Amax (mv411; in % (unit assumed)) of −72 and a GI50 (ociaml2; Homo sapiens, OCI-AML2, 120 h) of 127 nM. For the same molecule, the Amax (ociaml2; in % (unit assumed)) was −50, the GI50 (ociaml3; Homo sapiens, OCI-AML-3, 120 h) was 138 nM and the Amax (ociaml3; unit assumed) was 1%. It also gave a GI50 (ociaml5; Homo sapiens, OCI-AML-5, 120 h) of 265 nM, an Amax (ociaml5; unit assumed) of 4% and a GI50 (ocim1; OCI-M1, 120 h) greater than 10000 nM. For the same molecule, the Amax (ocim1; unit assumed) was 86%, the Amax (p31fuj; in % (unit assumed)) was −73 and the GI50 (p31fuj; Homo sapiens, P31-FUJ, 120 h) was 116 nM. The GI50 (sigm5; Homo sapiens, SIG-M5, 120 h) was 118 nM, the Amax (sigm5; in % (unit assumed)) was −21 and the GI50 (tf1; Homo sapiens, TF-1, 120 h) was 239 nM. The Amax (tf1; unit assumed) was 10%.
